# Results reported in publication PMC11249626, “Fluorophore-Labeled Pyrrolones Targeting the Intracellular Allosteric Binding Site of the Chemokine Receptor CCR1” (ACS Pharmacology & Translational Science, 2024).
# Key:
# [1] = Kinetic solubility assay (nephelometry); assay type: physicochemical; conditions: aqueous buffer, kinetic from dmso stock; saline phosphate buffer pH 7.25, 1% DMSO, 25 °C, ± SD; read-out: kinetic solubility Skin
# CCR1 = target: T1, CCR1 (Homo sapiens, UniProt P32246); assay: Membrane-based NanoBRET competition kinetic assay with 12 (1000 nM) and CCR1_Nluc membranes; assay type: binding; parameters: Promega pNLF1-C (Nluc) #CCR010TN00; host or cells: HEK293T, transient (PEI)
# T1 sequence (P32246 1-355): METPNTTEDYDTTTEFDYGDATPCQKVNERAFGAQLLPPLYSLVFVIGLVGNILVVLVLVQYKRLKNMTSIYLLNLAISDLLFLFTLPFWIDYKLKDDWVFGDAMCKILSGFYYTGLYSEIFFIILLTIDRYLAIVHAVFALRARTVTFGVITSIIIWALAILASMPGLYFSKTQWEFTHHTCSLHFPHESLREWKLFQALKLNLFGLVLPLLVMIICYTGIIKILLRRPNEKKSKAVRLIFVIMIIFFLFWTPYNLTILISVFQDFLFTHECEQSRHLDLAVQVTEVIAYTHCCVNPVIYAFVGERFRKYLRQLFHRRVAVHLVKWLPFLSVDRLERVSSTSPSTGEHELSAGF
# CXCR2 = target: T2, CXCR2 (Homo sapiens, UniProt P25025); assay: Membrane-based NanoBRET saturation binding assay, CXCR2_Nluc membranes; conditions: compared with CCR1
# T2 construct: host or cells: HEK293T, transient
# T2 sequence (P25025 1-360): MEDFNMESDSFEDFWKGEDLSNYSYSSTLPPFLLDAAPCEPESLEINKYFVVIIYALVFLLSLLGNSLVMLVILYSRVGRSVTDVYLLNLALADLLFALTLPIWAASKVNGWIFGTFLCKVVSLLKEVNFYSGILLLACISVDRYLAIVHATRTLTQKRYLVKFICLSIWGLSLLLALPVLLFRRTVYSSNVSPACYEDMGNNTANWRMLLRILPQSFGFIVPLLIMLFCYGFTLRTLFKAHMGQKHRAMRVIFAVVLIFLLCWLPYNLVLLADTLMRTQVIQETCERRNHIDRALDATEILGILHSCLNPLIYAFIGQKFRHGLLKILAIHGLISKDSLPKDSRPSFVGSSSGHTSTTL
# Experimental: Emission spectra of Nluc -labeled CCR1 (CCR1_Nluc) protein: The emission spectra of CCR1_Nluc has already been reported by Toy et al.1 For a confirmation of the reported data with new CCR1_Nluc membrane batches, furimazine (Promega, Mannheim, Germany 1:2000) was added to the membrane preparations (2 µg protein/well). […]
# NanoBRET binding assays: Membrane-based NanoBRET saturation assay: For the establishment of our NanoBRET binding assay, we referred to recently published protocols. […]
# Then, 20 µL of the membrane preparations diluted in assay buffer (3 µg total protein/well) were added and the plates were incubated for 90 min at 37 °C. Subsequently, 5 µL of a furimazine solution (Promega, Mannheim, Germany, final assay dilution: 1:5,000) were added to each well (final assay volume: 35 µL) before measuring luminescence with a CLARIOstar microplate reader using 620/10 nm and 475/30 nm emission filters after 5 min of incubation in the dark. Bioluminescence resonance energy transfer (BRET) was determined as the ratio of acceptor fluorescence and donor luminescence. […] Specific binding signals were calculated as a difference of total and non-specific binding. If required, netBRET values were calculated as the difference between total BRET values and the values obtained in the absence of a fluorescent ligand. […]
smiles,measurement,setting,value
O=C(C1=C(O)C(=O)N(CCc2ccc(O)cc2)C1c1ccc(F)cc1)c1ccccc1 (racemic) [compound 23],solubility kinetic at 10 s,[1],442 ± 27 µM
"CC(=O)C1=C(O)C(=O)N(c2ccc(Br)cc2F)C1C1CCCCC1 (stereo not drawn) [compound 5, reference compound]",koff,CCR1; CCR1_Nluc membranes,0.0019 s⁻¹
same,kon,CCR1; CCR1_Nluc membranes,723000 M⁻¹ s⁻¹
same,tr (kinetic competition),CCR1; CCR1_Nluc membranes,9.1 ± 0.5 min
same,Ki,"CCR1; kinetic competition, read-out: Ki(kin.)",2.63 nM
CN(C)c1ccc2c(-c3cc(C(=O)NCCOCCOCc4cn(CCCC(=O)C5=C(O)C(=O)N(c6ccc(Br)cc6F)C5C5CCCCC5)nn4)ccc3C(=O)[O-])c3ccc(=[N+](C)C)cc-3oc2c1 (stereo not drawn) [compound 12],Binding signal for CXCR2,CXCR2,much weaker
